Assay results from patent publication US20120121679A1, “VIRICIDAL AND MICROBICIDAL COMPOSITIONS AND USES THEREOF” (University of Georgia Research Foundation, Inc., priority 2009, published 2012).
Read-outs that look alike come from different tables or passages of the source.

How the values were obtained:
[1] = system: S. enteritidis; experiment: Reduction of S. enteritidis in water treated with organic acids and SDS; assay type: cell-based, Salmonella enteritidis; conditions: for S. enteritidis counts: water, 21° C.; for Salmonella reduction in water: within 30 minutes
[2] = system: L. monocytogenes; assay type: cell-based, Listeria monocytogenes; conditions: 21° C.
[3] = system: Feline Calicivirus (FCV); experiment: Inactivation of FCV by levulinic acid plus SDS in solution, plaque assay; conditions: 21° C., 1 min
[4] = system: Murine norovirus (MNV-1); experiment: Inactivation of MNV-1 by levulinic acid plus SDS in solution, plaque assay; conditions: 21° C., 1 min
[5] = system: spores of Bacillus anthracis Sterne (34F2); assay type: cell-based
[6] = system: MNV-1; conditions: 1,000 ppm, cited from earlier work
[7] = system: yeasts and molds; experiment: Produce wash in a 4-L tank: yeast and mold counts; conditions: time not given
[8] = system: aerobic plate count; experiment: Produce wash in a 4-L tank: aerobic plate counts (APC); conditions: time not given
[9] = system: S. typhimurium; experiment: Produce wash in a 4-L tank: S. typhimurium counts on apples, celery, onions, cantaloupes

## CCCCCCCCCCCCOS(=O)(=O)[O-].[Na+] [0.05% SDS, sodium dodecyl sulfate]
[1]; 0 min
  S. enteritidis counts: 7.1 log CFU/ml
[1]; 2 min
  S. enteritidis counts: 7.0 log CFU/ml
[1]; 5 min
  S. enteritidis counts: 7.2 log CFU/ml
[1]; 10 min
  S. enteritidis counts: 7.1 log CFU/ml
[1]; 20 min
  S. enteritidis counts: 7.2 log CFU/ml
[1]; 30 min
  S. enteritidis counts: 7.1 log CFU/ml
[1]
  Salmonella reduction in water: did not reduce Salmonella cell numbers
[2]; 0 min
  L. monocytogenes counts: 6.6 ± 0.3 log CFU/ml
[2]; 2 min
  L. monocytogenes counts: 6.4 ± 0.1 log CFU/ml
[2]; 5 min
  L. monocytogenes counts: 6.0 ± 0.1 log CFU/ml
[2]; 10 min
  L. monocytogenes counts: 5.0 ± 0.3 log CFU/ml
[2]; 20 min
  L. monocytogenes counts: 3.8 ± 0.2 log CFU/ml
[2]; 30 min
  L. monocytogenes counts: 3.3 ± 0.1 log CFU/ml
[3]; sulfate
  Log Reduction PFU/ml (standard deviation), FCV: −0.12 (±0.23) log PFU/ml
[4]; sulfate
  Log Reduction PFU/ml (standard deviation), MNV-1: −0.13 (±0.26) log PFU/ml

## CC(=O)CCC(=O)O [3.0% levulinic acid, levulinic acid]
[1]
  Salmonella reduction in water: 3.4 log CFU/ml
[1]; listed as 3% levulinic acid
  Salmonella reduction in water: about 3.4 log CFU/ml
[5]; Experiment A3, 0 min
  CFU/ml % recovery (as compared to control flask F): 108%
[5]; Experiment A3, 10 min
  CFU/ml % recovery (as compared to control flask F): 81%
[5]; Experiment A3, 45 min
  CFU/ml % recovery (as compared to control flask F): 55%
[5]; Experiment A3, 90 min
  CFU/ml % recovery (as compared to control flask F): 64%
[5]; Experiment A4 absent heat, RT, 0 min
  CFU/ml % recovery (as compared to control flask F): 89%
[5]; Experiment A4 absent heat, RT, 1 h
  CFU/ml % recovery (as compared to control flask F): 54%
[5]; Experiment A4 absent heat, RT, 2 h
  CFU/ml % recovery (as compared to control flask F): 27%
[5]; Experiment A4 absent heat, RT, 3 h
  CFU/ml % recovery (as compared to control flask F): 30%
[5]; Experiment A4 absent heat, RT, 4 h
  CFU/ml % recovery (as compared to control flask F): 15%
[5]; Experiment A4 with heat, 65° C., 0 min
  CFU/ml % recovery (as compared to control flask F): 70%
[5]; Experiment A4 with heat, 65° C., 1 h
  CFU/ml % recovery (as compared to control flask F): 78%
[5]; Experiment A4 with heat, 65° C., 2 h
  CFU/ml % recovery (as compared to control flask F): 45%
[5]; Experiment A4 with heat, 65° C., 3 h
  CFU/ml % recovery (as compared to control flask F): 33%
[5]; Experiment A4 with heat, 65° C., 4 h
  CFU/ml % recovery (as compared to control flask F): 46%
[5]; Experiment A5 absent heat, RT, 0 min
  CFU/ml % recovery (as compared to control flask F): 105%
[5]; Experiment A5 absent heat, RT, 1 h
  CFU/ml % recovery (as compared to control flask F): 80%
[5]; Experiment A5 absent heat, RT, 2 h
  CFU/ml % recovery (as compared to control flask F): 46%
[5]; Experiment A5 absent heat, RT, 3 h
  CFU/ml % recovery (as compared to control flask F): 67%
[5]; Experiment A5 absent heat, RT, 4 h
  CFU/ml % recovery (as compared to control flask F): 37%
[5]; Experiment A5 with heat, 65° C., 0 min
  CFU/ml % recovery (as compared to control flask F): 75%
[5]; Experiment A5 with heat, 65° C., 1 h
  CFU/ml % recovery (as compared to control flask F): 58%
[5]; Experiment A5 with heat, 65° C., 2 h
  CFU/ml % recovery (as compared to control flask F): 34%
[5]; Experiment A5 with heat, 65° C., 3 h
  CFU/ml % recovery (as compared to control flask F): 34%
[5]; Experiment A5 with heat, 65° C., 4 h
  CFU/ml % recovery (as compared to control flask F): 14%
[3]; listed as 3% Levulinic acid
  Log Reduction PFU/ml (standard deviation), FCV: 0.43 (±0.23) log PFU/ml
[4]; listed as 3% Levulinic acid
  Log Reduction PFU/ml (standard deviation), MNV-1: −0.09 (±0.10) log PFU/ml

## OCl [sodium hypochlorite solution, sodium hypochlorite]
[6]; food residuals present on the surfaces
  reduction in MNV-1 infectivity: minimal reductions in MNV-1 infectivity
[6]; viruses dried on stainless steel surfaces without food residuals
  reduction of viable MNV-1: > 4 log Most Probable Number (MPN)/ml

## acidified sodium chlorite [50 ppm acidified sodium chlorite]
[7]
  reduction of yeast and mold counts on onions: < 0.5 log CFU/onion
[8]
  reduction of APC on onions: < 0.5 log CFU/onion
[9]; 2 min (Example 42)
  average reduction of S. typhimurium on cantaloupes: 0.19 log CFU per cantaloupe
[9]; time not given
  reduction of S. typhimurium on onions: < 0.5 log CFU/onion
[9]; treatment time 2 min (Example 42)
  average S. typhimurium count on cantaloupes: 3.43 log CFU per cantaloupe
